Reference: US20090326032A1, “PHARMACEUTICAL COMPOSITIONS COMPRISING NK1 RECEPTOR ANTAGONISTS AND SODIUM CHANNEL BLOCKERS” (GLAXO GROUP LIMITED, priority 2007, published 2009)
Structures can show the parent of a compound that is named as a salt. Where two headings read alike, the source gives them in different places.

Legend:
[1] = blood and brain drug concentrations in satellite animals; type: in vivo, rat; settings: for concentration at 60 min: CD, rat, intraperitoneal
[2] = tested on: tonic hindlimb extensor seizures; assay: threshold for tonic hindlimb extensor seizures, corneal electroshock, 'up and down' method (CC50); type: in vivo, rat; settings: ENa7 3 mg/kg s.c. alone, male CD rats
Method: This work was conducted in compliance with the Home Office Guidance on the operation of the Animals (Scientific Procedures) Act 1986 and GlaxoSmithKline ethical standards. Male CD rats (100-145 g) were supplied by Charles River, UK. Animals were group housed (6 animal per cage) with free access to food (Standard rodent chow; Harlan, UK) and water under a 12 h light/dark cycle (lights on at 0700 h). A period of at least one week between arrival at GSK and the study was allowed in all cases.
Animals were administered a test compound at the appropriate dose, route and pre-treatment time and returned to their home cage. Testing occurred in a separate room from that used for housing. […] Seizure threshold was determined using the ‘up and down’ method of Kimball et al. (1957)(Kimball A W, Burnett W T Jr, Doherty D G. (1957) Radiat Res. 7(1):1-12). […]
All doses were calculated as base. […]
Induction of seizure is measured as an all-or-nothing effect scored as either present (+) or absent (0) for each animal. […] Drug effects were calculated as the % change in CC50. Significant differences between drug-treated animals and appropriate vehicle treated groups were assessed according to the methods of Litchfield and Wilcoxon (1949). […]

| concentration at 60 min ([1]; blood, 30 mg/kg, ENK6 30 mg/kg, ENa7 veh, n = 1, read-out: Blood ENK6) | concentration at 60 min ([1]; blood, ENK6 30 mg/kg + ENa7 1 mg/kg, n = 2, read-out: Blood ENK6) | concentration at 60 min ([1]; blood, ENK6 30 mg/kg + ENa7 3 mg/kg, n = 2, read-out: Blood ENK6) | concentration at 60 min ([1]; brain, 30 mg/kg, ENK6 30 mg/kg, ENa7 veh, n = 1, read-out: Brain ENK6) | concentration at 60 min ([1]; brain, ENK6 30 mg/kg + ENa7 1 mg/kg, n = 2, read-out: Brain ENK6) | concentration at 60 min ([1]; brain, ENK6 30 mg/kg + ENa7 3 mg/kg, n = 2, read-out: Brain ENK6) | concentration of ENa7 in the presence of the NK1 antagonist ([1]; blood and brain, with vs without ENK6 30 mg/kg) | Structure (SMILES) | seizure threshold [2] |
| --- | --- | --- | --- | --- | --- | --- | --- | --- |
| 558 ng/mL | 456 ng/mL | 1210 ng/mL | 1260 ng/g | 1040 ng/g | 4800 ng/g | – | COc1ccc(-n2nnnc2C(F)(F)F)cc1CN[C@H]1CCCN[C@H]1c1ccccc1 [ENK6, [2-Methoxy-5-(5-trifluoromethyl-tetrazol-1-yl)-benzyl]-([2S,3S]-2-phenyl-piperidin-3-yl)-amine dihydrochloride] | – |
| – | – | – | – | – | – | No increase | CN1CC[C@]2(CC[C@H](c3ccc(OCc4ccccc4F)cc3)N2)C1=O.Cl [ENa7, (2R,5R)-2-(4-{[(2-Fluorophenyl)methyl]oxy}phenyl)-7-methyl-1,7-diazaspiro[4.4]nonan-6-one hydrochloride] | robust and significant increase |
